Source: patent US20110105389A1 (priority 2009, published 2011)
Values joined by “and” are separate entries in the source; they are usually repeats but may differ in a detail not shown here. Equal values may be shown once.

Columns and labels:
CYP3A4 = CYP3A4 (Homo sapiens, UniProt P08684); experiment: biochemical
CYP2D6 = CYP2D6 (Homo sapiens, UniProt P10635); experiment: biochemical
[1] = Plasma protein binding (equilibrium dialysis), Method B5; type: in vitro ADME; conditions: human plasma, 60 min at 37° C., typically 10 μM
Text: B5. Plasma Protein Binding
The pharmacokinetic and pharmacodynamic properties of drugs are largely a function of the reversible binding of drugs to plasma or serum proteins such as albumin and α1-acid glycoprotein. In general, only unbound drug is available for diffusion or transport across cell membranes, and for interaction at the pharmacological target. On the other hand, drugs with low plasma protein binding generally have large volumes of distribution and rapid clearance since only unbound drug is available for glomerular filtration and, in some cases, hepatic clearance. Thus, the extent of plasma protein binding can influence efficacy, distribution and elimination. The ideal range for plasma protein binding is in the range of 87-98% for most drug products.
Protein binding studies were performed using human plasma. Briefly, 96-well microplates were used to incubate various concentrations of the test article for 60 min at 37° C. A concentration of 10 μM was a typical selection to be employed in this study. Bound and unbound fractions are separated by equilibrium dialysis, where the concentration remaining in the unbound fraction is quantified by LC-MS or LC-MS-MS analysis. […].

[2] = molecular target: T1, ghrelin receptor (HEK-GHSR1 stable cells) (Homo sapiens, UniProt Q92847); experiment: Ghrelin receptor inverse agonist assay (HTRF IP-one), Method B4; type: cell-based
T1 construct: expressed in transfected cells
Procedure, shortened: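 HEK cells stably expressing GHSR1, seeded at 100 000 cells/well overnight, exposed to compound for 30 min at 37° C. Cells then lysed and IP1 accumulation measured by HTRF (d2 plus anti-IP1 cryptate, 1 h at room temp). Wells lacking d2 served as negative control.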

[3] = tested on: rat stomach fundus strips; experiment: Ex-vivo potency evaluation on the rat stomach fundus (inhibition of ghrelin-induced contractility), Method B10; conditions: EFS
Procedure, shortened: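 Male Wistar rat fundus strips in Krebs at 37 °C (5% CO2 in O2), 1.5 g resting tension, were subjected to EFS (0.5 ms pulses, 5 Hz, 70 V, 30 s every 3 min) with isometric tension recording. Responses were expressed as % of mean pre-drug EFS responses; IC50 for inhibiting ghrelin-induced contractility was determined.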

[4] = Pharmacokinetic analysis (intravenous and oral), Method B9; type: in vivo
Procedure, shortened: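 Compound concentration was typically 2 mg/mL for intravenous and 8 mg/mL for oral dosing. PK parameters such as elimination half-life and total plasma clearance were derived.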

[5] = plasma, Table 10b, 2 mg/mL intravenous typically employed

T1 sequence (Q92847 whole entry): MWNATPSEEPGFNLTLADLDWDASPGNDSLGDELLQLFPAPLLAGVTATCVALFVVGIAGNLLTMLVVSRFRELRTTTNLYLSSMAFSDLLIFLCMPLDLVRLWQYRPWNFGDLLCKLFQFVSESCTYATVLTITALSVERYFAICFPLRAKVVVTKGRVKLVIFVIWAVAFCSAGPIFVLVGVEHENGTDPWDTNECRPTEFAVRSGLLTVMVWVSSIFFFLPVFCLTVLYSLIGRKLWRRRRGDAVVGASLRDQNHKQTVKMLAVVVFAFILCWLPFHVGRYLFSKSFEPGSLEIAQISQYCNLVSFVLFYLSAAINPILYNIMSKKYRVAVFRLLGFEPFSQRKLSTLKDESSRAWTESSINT
CYP3A4, sequence (P08684 whole entry): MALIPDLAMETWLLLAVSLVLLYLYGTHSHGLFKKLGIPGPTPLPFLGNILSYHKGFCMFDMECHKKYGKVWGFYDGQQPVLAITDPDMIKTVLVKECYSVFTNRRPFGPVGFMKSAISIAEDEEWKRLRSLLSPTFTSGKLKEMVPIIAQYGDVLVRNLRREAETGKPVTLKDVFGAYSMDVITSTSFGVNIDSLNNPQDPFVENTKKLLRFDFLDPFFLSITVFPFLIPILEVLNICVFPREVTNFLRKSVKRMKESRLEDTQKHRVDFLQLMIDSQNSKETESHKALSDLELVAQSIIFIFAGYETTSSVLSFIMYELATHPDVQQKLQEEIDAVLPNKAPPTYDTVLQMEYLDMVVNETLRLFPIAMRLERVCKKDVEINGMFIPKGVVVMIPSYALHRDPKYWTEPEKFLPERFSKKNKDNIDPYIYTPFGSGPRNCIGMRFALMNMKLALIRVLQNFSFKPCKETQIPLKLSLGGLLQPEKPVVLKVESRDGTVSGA
CYP2D6, sequence (P10635 whole entry): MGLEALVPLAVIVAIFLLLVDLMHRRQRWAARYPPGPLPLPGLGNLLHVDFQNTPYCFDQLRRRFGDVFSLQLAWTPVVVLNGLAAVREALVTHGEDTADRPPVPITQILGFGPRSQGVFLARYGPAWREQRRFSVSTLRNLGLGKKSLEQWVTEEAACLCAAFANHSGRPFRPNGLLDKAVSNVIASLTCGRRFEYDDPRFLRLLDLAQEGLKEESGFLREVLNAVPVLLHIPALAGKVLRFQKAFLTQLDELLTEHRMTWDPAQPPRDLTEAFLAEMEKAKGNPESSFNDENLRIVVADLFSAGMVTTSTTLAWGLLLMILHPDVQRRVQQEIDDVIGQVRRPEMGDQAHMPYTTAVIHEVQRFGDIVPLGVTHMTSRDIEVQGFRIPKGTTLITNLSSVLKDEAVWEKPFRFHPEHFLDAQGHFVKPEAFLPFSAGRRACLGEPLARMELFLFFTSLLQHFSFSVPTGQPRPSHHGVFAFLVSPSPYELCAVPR

Row | IC50 (CYP3A4) | IC50 (CYP2D6) | fraction unbound at 60 min, 10 μM [1] | IC50 [2] [nM] | IC50 [3] [nM] | bioavailability ([4]; plasma, Table 10b, 2 mg/mL intravenous and 8 mg/mL oral typically employed) [%] | clearance [4, 5] [mL/min/kg] | half-life [4, 5] [h] | Oral F ([4]; in vivo, po) [%] | half-life ([4]; plasma) [h] | clearance ([4]; plasma, intravenous) [mL/min/kg] | Structure (SMILES)
1 | 14300 nM | 55800 nM | 0.221 | 10 to 50 | 650 |  |  |  |  |  |  | CC(C)[C@@H]1NCCOc2ccccc2C[C@H](O)[C@@H](C)NC(=O)[C@@H](Cc2cccc(F)c2)NC(=O)[C@H](C(C)O)N(C)C1=O (stereo partly drawn) [Compound 1503]
2 | 13400 nM and 3700 nM | 9210 nM and 9200 nM | 0.243 | 10 to 50 | 2900 |  |  |  |  |  |  | Cc1cccc(C[C@H]2NC(=O)[C@H](C(C)O)N(C)C(=O)[C@H](C(C)C)NCCOc3ccccc3C[C@H](O)CNC2=O)c1 (stereo partly drawn) [Compound 1453]
3 | 6000 nM | 35700 nM | 0.061 | 50 to 100 | 12.1 |  |  |  |  |  |  | CC[C@@H]1NCC2CCc3cccc(c3O2)CCCNC(=O)[C@@H](Cc2ccccc2)NC(=O)[C@H](C(C)O)N(C)C1=O (stereo partly drawn) [Compound 1780]
4 | 8500 nM | 23100 nM | 0.05 | 50 to 100 | 60 | 54 ± 19 | 28 ± 8 | 2.65 ± 0.267 |  |  |  | CC(O)[C@H]1C(=O)N[C@H](Cc2ccccc2)C(=O)NCC#Cc2c(F)cccc2OCCN[C@@H](C2(C)CC2)C(=O)N1C (stereo partly drawn) [Compound 1876]
5 | 11600 nM | 45300 nM | 0.127 | 10 to 50 | 30 |  | 35 ± 1 | 2.07 ± 0.317 |  |  |  | CC(O)[C@H]1C(=O)N[C@H](Cc2ccccc2)C(=O)NCC#Cc2ccccc2OCCN[C@@H](C2(C)CC2)C(=O)N1C (stereo partly drawn) [Compound 1878]
6 | 7700 nM | 21100 nM | 0.076 | 100 to 500 | 12 |  | 26 ± 18 | 0.983 ± 0.633 |  |  |  | CC(O)[C@H]1C(=O)N[C@H](Cc2ccccc2)C(=O)NCCCc2cccc3c2OC(CC3)CN[C@@H](C2CC2)C(=O)N1C (stereo partly drawn) [Compound 1778]
7 | 700 nM | 2100 nM | 0.036 | 100 to 500 | 12.5 |  |  |  | 18 | 1.07 | 23 | CC[C@@H]1CCc2ccc(F)cc2OCCN[C@@H](C(C)C)C(=O)N(C)[C@@H](C(C)O)C(=O)N[C@H](Cc2c[nH]c3ccccc23)C(=O)N1 (stereo partly drawn) [Compound 1505]
